Consider eleven compounds from US9856259B2, “Heterocyclic compounds and uses thereof” (Plexxikon Inc., priority 2014, dated 2018).

In assay [1] the test system is cancer cell lines / MV-4-11 Myc reporter cell line. The assay can be described thus: Bromodomain cell assays of Example 8 (at least one of them). Format: cell-based. The note with it: Homo sapiens, MV4-11; at least one of the bromodomain cell assays described in Example 8. The protocol:
(§1) In this study, we test compounds in different cancer cell lines. MV-4-11 and MOLM-13 are AML cell lines harboring a MLL-AF4 and MLL-AF9 translocation, respectively. MM.1S is a multiple myeloma cell line. SK—N-AS, IMR-32 and SK-N-BE(2) are neuroblastoma cell lines. IMR-32 and SK-N-BE(2) cell lines harbor MYCN amplifications.
(§2) MV-4-11, MM.1S, IMR-32, SK-N-AS and SK-N-BE(2) were obtained from ATCC (IL, USA) and MOLM-13 were purchased from DSMZ (Braunschweig, German). Cells are cultured as recommended by their sources. For growth inhibition studies 3000 cells are seeded in wells of a 96-well plate in 75 μL of culture media. After several hours, growth media containing compounds of formula (I) are added to the wells. Compound at a maximal concentration of 5 mM was serially diluted 1:3 for a total of 8 point titration with DMSO as a control. A 1 μL aliquot of each dilution point is added to 249 μL growth media and 75 μL is added to each well containing cells, providing 10 μM compound at the maximum concentration point. The final concentration of DMSO in all wells is 0.2%. Cells are incubated for 72 hours, and 25 μL of CellTiter Glo Reagent (Promega Ga., USA) is added to each well. Plates are shaken for approximately 10 minutes and chemiluminescent signal is read on Tecan microplate reader. The measured luminescence correlates directly with cell number.
(§3) All data is normalized to the mean of eight DMSO high control wells on each plate. A four parameter curve fit of the following formula was then applied: Y=a+(b−a)/(1+(x/c)^d) Where ‘a’ is the minimum, ‘b’ is the maximum, ‘c’ is the pIC50 and ‘d’ is the Hill slope. […] Myc Reporter Assay
In MV-4-11 cells, BRD2, BRD3 and BRD4 bind to the promoter region of MYC and regulate its transcription (Dawson M A et al. 2011). The literature bromodomain inhibitor iBET 151 could disrupt BRD4 recruitment to the MYC promoter and subsequently downregulate c-myc transcription (Dawson M A et al. 2011). Myc protein is a transcription factor that heterodimerizes with an obligatory partner Max and regulates the transcription of genes important for cell proliferation, differentiation, and apoptosis. This Myc reporter assay is used to monitor the inhibitory effect of compound of formula (I) on Myc dependent gene expression. Effective compounds could have potential therapeutic effects in Myc-driven tumors.
The MV-4-11 Myc reporter cell line is established by infecting MV-4-11 with VSV-g pseudotyped lentivirus expressing the firefly luciferase gene under the control of a minimal (m) CMV promoter and tandem repeats of the E-box transcriptional response element (TRE) (Qiagen IL, USA) and selecting cells in 2.5 μg/ml Puromycin.
The MV-4-11 Myc reporter cell line is maintained in Iscove's Modified Dulbecco's Medium containing 10% FBS, 1% PenStep and 2.5 μg/ml Puromycin. Cells are incubated at 37° C. in a humidified atmosphere with 5% CO2. 25,000 cells are seeded in 96-well plate in 50 μL of culture media. After several hours, growth media containing 2× compounds are added to the wells. Compound at a maximal concentration of 5 mM is serially diluted 1:3 for a total of 8 point titration. A 1 μl aliquot of each dilution point is added to 249 μl growth media and 50 μl is added to each well containing cells, providing 10 μM compound at the maximum concentration point. DMSO treated cells serve as a high control and 10 μM JQ1 treated cells serve as a low control. Cells are incubated for a further 24 hours and 25 μL of CellTiter-Fluo Reagent (Promega Ga., USA) is added to each well. Plates are shaken for approximately 2 minutes and incubated at 37° C. for 0.5 hour. Fluorescence signal is read in a Tecan Plate reader (λex=400 nm, λcm=505 nm). 25 μL of One-Glo Reagent (Promega Ga., USA) is then added to the plates. Chemiluminescent signal is read on Tecan plate reader. Values from the wells with no cells are subtracted from all samples for background correction. […]

The next assay has as its system MV-4-11. The assay can be described thus: Oncology cell growth assay, MV-4-11 3 d growth. Format: cell-based. To be noted: Homo sapiens, MV4-11; MV-4-11 cells, 72 hours, CellTiter Glo; read-out: Cell activity (IC50 μM) MV-4-11 3 d-Growtb. The protocol: as §1, §2, §3
The next assay deals with T1, BRD4-BD12 (Homo sapiens, UniProt O60885).
T1 construct: dual bromodomains (BRD4-BD12 (1-477), BRD4-BD12 (1-472)); six-His tag (N); made in house; host or cells: E. coli BL21-CodonPlus (DE3)
The assay can be described thus: Alphascreen binding assay, BRD4(1 2) H4. To be noted: BRD4 dual bromodomains with acetylated Histone 4 peptide, read-out: Biochemical activity (IC50 μM) BRD4(1 2) H4. The protocol: Binding of compounds of formula (I) with bromodomain 2, 3 4 was assessed using Alphascreen binding assay. The inhibition of the interaction between bromodomain and its acetylated target protein (Filippakopoulos P et al. 2012) was measured quantitatively using recombinant BRD proteins, an acetylated Histone 4 peptide and AlphaScreen™ technology. In absence of inhibition the BRD protein bound to AlphaScreen™ nickel chelate acceptor beads can interact with the acetylated Histone 4 peptide which is immobilized by the AlphaScreen™ Streptavidin coated beads. This interaction brings donor and acceptor beads in proximity. The close proximity allows the singlet oxygen produced by laser excitation of the donor beads to reach the acceptor beads and generate a luminescence signal. BRD inhibitors result in a decrease in the proximity signal through an inhibition of the BRD acetylated peptide interaction.
Recombinant human bromodomains containing the N-terminal bromodomain (BRD2-BD1 (71-194), BRD3-BD1 (24-144) and BRD4-BD1 (44-164)) or dual bromodomains (BRD4-BD12 (1-477), BRD4-BD12 (1-472)) were prepared and purified as described in protein expression and purification session. The peptide is human Histone H41-21K5AcK8AcK12AcK16Ac-Biotin (Anaspec Calif., USA).
Protocol for BRD2, BRD3 and BRD4 assay: All components are prepared in buffer composed of 50 mM HEPES pH 7.5, 100 mM NaCl, 0.01% BSA, 0.01% Triton X-100, 2 mM DTT. 7 μL of Bromodomain protein and 7 μL of peptide are added to wells containing 1 μL of various concentrations of test compounds of formula (I) or DMSO vehicle in an Alphaplate (PerkinElmer Ga., USA) and incubated for 1 hour at room temperature. 4 μL donor and acceptor bead mixture is then added with final concentrations of 7.5 μg/ml. 30 minutes after bead addition, Alpha signal is read on the Envision spectrometer (λEx 680 nm, λEm 520-620 nm). Final concentrations of bromodomain proteins and peptide are as shown below.
All data was normalized to the mean of 16 high and 16 low control wells on each plate. A four parameter curve fit of the following formula was then applied: Y=a+(b−a)/(1+(x/c)^d) Where ‘a’ is the minimum, ‘b’ is the maximum, ‘c’ is the pIC50 and ‘d’ is the Hill slope. Protein Expression and Purification
Recombinant human bromodomains containing the N-terminal bromodomain (BRD2-BD1 (71-194), BRD3-BD1 (24-144) and BRD4-BD1 (44-164)) or dual bromodomains (BRD4-BD12 (1-477), BRD4-BD12 (1-472)) were expressed in E. coli cells (in a modified pET vector) with an N-terminal six-His tag and purified using a combination of both IMAC (Ni-affinity) and size exclusion chromatography steps.
Recombinant BRD proteins were expressed using the E. coli strain BL21-CodonPlus (DE3) (Agilent Technologies CA, USA). Cells were grown in Terrific Broth (TB) media to an OD600 of 1.2 at 37° C. at which temperature was reduced to 25° C., protein was induced with 1.0 mM IPTG for 12-18 hours and harvested by centrifugation at 8000×g for 20 minutes. Cells were re-suspended in 0.1M KPO4 pH 8.0, 250 mM NaCl, 10% Glycerol, 0.75% NP-40, 25 mM Imidazole, 5 mM BME with 0.2 mg/ml Lysosyme, 2.0 mM PMSF, 25 μg/ml DNAse I, incubated on ice for 30 minutes and lyzed with a cell disruptor (MicroFluidics MA, USA). The lysate was clarified by centrifugation at 20,000×g for 2 hours. The protein was captured with Ni-NTA resin (Life Technologies, USA). Contaminating proteins were washed off with 25 mM Tris-HCl pH 8.3, 250 mM NaCl, 12% Glycerol and 50 mM Imidazole. Following 3× wash steps, protein was eluted step wise using a 50 mM HEPES pH 7.5, 500 mM NaCl and 400 mM Imidazole. The protein was further purified using Gel Filtration column 26/600 Superdex 200 (GE Biosciences N.J., USA) in 50 mM HEPES pH 7.5, 250 mM NaCl. The protein was aliquoted and flash-frozen in liquid Nitrogen.
A general note: Alpha assays give light when donor and acceptor beads are brought close together.

Where only a bound is given, the exact number is not on record here.

For `COC(=O)Cc1ccc(-c2nn([C@@H](C)c3ccccn3)c3cc(-c4c(C)noc4C)ccc23)cc1` [Compound P-2012, methyl 2-[4-[6-(3,5-dimethylisoxazol-4-yl)-1-[(1S)-1-(2-pyridyl)ethyl]indazol-3-yl]phenyl]acetate], the IC50 in assay [1] is < 10000 nM; in the assay with MV-4-11, ≤ 1 µM; on BRD4-BD12 it was ≤ 1 µM.

Regarding `Cc1noc(C)c1-c1ccc2c(-c3ccc(C(=O)O)cc3)nn([C@@H](C)c3ccccn3)c2c1` [Compound P-2013, 4-[6-(3,5-dimethylisoxazol-4-yl)-1-[(1S)-1-(2-pyridyl)ethyl]indazol-3-yl]benzoic acid], the half-maximal inhibitory concentration (IC50) in assay [1] is < 10000 nM; with MV-4-11, ≤ 1 µM; on BRD4-BD12, ≤ 1 µM.

`Cc1noc(C)c1-c1ccc2c(-c3ccc(CC(=O)O)cc3)nn([C@@H](C)c3ccccn3)c2c1` [Compound P-2014, 2-[4-[6-(3,5-dimethylisoxazol-4-yl)-1-[(1S)-1-(2-pyridyl)ethyl]indazol-3-yl]phenyl]acetic acid]: the IC50 was < 10000 nM in assay [1], ≤ 1 µM in the assay on MV-4-11 and ≤ 1 µM at BRD4-BD12.

Take `[2H]C([2H])(C1CCC(F)(F)CC1)n1ccc2ncc(-c3c(C)noc3C)nc21` [Compound P-2038, 4-[5-[dideuterio-(4,4-difluorocyclohexyl)methyl]pyrrolo[2,3-b]pyrazin-3-yl]-3,5-dimethyl-isoxazole]: the values for the IC50 (in assay [1]; with MV-4-11; at BRD4-BD12) were < 10000 nM, 1 to 10 µM and ≤ 1 µM, respectively.

As to `[2H]C([2H])(C1CCC(F)(F)CC1)n1cc(I)c2ncc(-c3c(C)noc3C)nc21` [Compound P-2039, 4-[5-[dideuterio-(4,4-difluorocyclohexyl)methyl]-7-iodo-pyrrolo[2,3-b]pyrazin-3-yl]-3,5-dimethyl-isoxazole], the IC50 in assay [1] is < 10000 nM; with MV-4-11, ≤ 1 µM; on BRD4-BD12 it was ≤ 1 µM.

For `[2H]C([2H])(C1CCC(F)(F)CC1)n1cc(-c2cnn(C)c2)c2ncc(-c3c(C)noc3C)nc21` [Compound P-2040, 4-[5-[dideuterio-(4,4-difluorocyclohexyl)methyl]-7-(1-methylpyrazol-4-yl)pyrrolo[2,3-b]pyrazin-3-yl]-3,5-dimethyl-isoxazole], the IC50 in assay [1] is < 10000 nM; in the assay with MV-4-11, ≤ 1 µM; on BRD4-BD12, ≤ 1 µM.

Turning to `[2H]C([2H])(C1CCC(F)(F)CC1)n1ccc2ncc(-c3[nH]nnc3C)nc21` [Compound P-2041, 5-[dideuterio-(4,4-difluorocyclohexyl)methyl]-3-(4-methyl-1H-triazol-5-yl)pyrrolo[2,3-b]pyrazine], the IC50 is < 10000 nM in assay [1], 1 to 10 µM in the assay on MV-4-11 and 1 to 10 µM on BRD4-BD12.

As for `[2H]C([2H])(C1CCC(F)(F)CC1)n1ccc2ncc(-c3nn(C(F)F)nc3C)nc21` [Compound P-2042], the half-inhibitory concentration (IC50) was < 10000 nM in assay [1], 10 to 200 µM in the assay on MV-4-11 and 1 to 10 µM at BRD4-BD12.

`[2H]C([2H])(C1CCC(F)(F)CC1)n1cc(-c2ccc(C(=O)OC)cc2)c2ncc(-c3c(C)noc3C)nc21` [Compound P-2043, methyl 4-[5-[dideuterio-(4,4-difluorocyclohexyl)methyl]-3-(3,5-dimethylisoxazol-4-yl)pyrrolo[2,3-b]pyrazin-7-yl]benzoate]: the IC50 in assay [1] is < 10000 nM; in the assay with MV-4-11, 1 to 10 µM; on BRD4-BD12, ≤ 1 µM.

On to `[2H]C([2H])(C1CCC(F)(F)CC1)n1cc(-c2ccc(C(=O)O)cc2)c2ncc(-c3c(C)noc3C)nc21` [Compound P-2044, 4-[5-[dideuterio-(4,4-difluorocyclohexyl)methyl]-3-(3,5-dimethylisoxazol-4-yl)pyrrolo[2,3-b]pyrazin-7-yl]benzoic acid], for which the IC50 is < 10000 nM in assay [1], ≤ 1 µM in the assay on MV-4-11 and ≤ 1 µM at BRD4-BD12.

For the compound `COC(=O)c1ccc(-c2cn(C(c3ccccc3)c3ccccn3)c3nc(-c4c(C)noc4C)cnc23)cc1` (stereo not drawn) [Compound P-2045, methyl 4-[3-(3,5-dimethylisoxazol-4-yl)-5-[phenyl(2-pyridyl)methyl]pyrrolo[2,3-b]pyrazin-7-yl]benzoate], the IC50 was < 10000 nM in assay [1], ≤ 1 µM in the assay on MV-4-11 and ≤ 1 µM on BRD4-BD12.

Usually IC50 stands for the concentration that inhibits the measured activity by half.
